Format in all cases: physicochemical
The nature of data set [1]: Physical stability at elevated temperatures (impurities by HPLC). Conditions: for 4-Epi-Tigecycline 7 days at 80° C. / Total impurities 7 days at 80° C. / Stability in words (impurities after storage): stored 7 days at 80° C.; for 4-Epi-Tigecycline 7 days at 80° C. / Total impurities 7 days at 80° C.: in % (unit assumed). From the text:
Tigecycline must be available in a physically stable form as well, in order to avoid degradation and as a consequence the building of undesired byproducts. Table 4 compares the stability data of the different crystalline forms of Tigecycline free base and Tigecycline hydrochloride with these of crystalline form C of Tigecycline dihydrochloride from the present invention.
Therefore crystalline form C of Tigecycline dihydrochloride in essentially pure polymorphic form is more preferred than amorphous Tigecycline dihydrochloride.

Another data set is described as follows: physchem. Here is the method:
The finished dosage form contains lyophilized amorphous Tigecycline respectively Tigecycline hydrochloride. Before lyophilizing, Tigecycline respectively acid addition salts of Tigecycline are dissolved in water, thus water solubility is an important factor to consider.
A UV-vis Lambda 35 spectrophotometer (Perkin-Elmer) was used (λ=347 nm, 1.0 cm quartz cells). Perkin Elmer® UV Win Lab-5.1 software was used.
A saturated solution of Tigecycline, Tigecycline hydrochloride or Tigecycline dihydrochloride in distilled water was prepared and the suspension was stirred at room temperature for 30 minutes with a stirring speed of 1000 U/min. The suspension was filtered through a 0.45 μm filter. Finally the resulting solution was diluted 10000-fold and measured against water at a wavelength of 347 nm.

Data set [2] is described as follows: Water content on storage at defined relative humidity. Conditions: stored at about 0% relative humidity. The source says:
Form C of Tigecycline dihydrochloride is an anhydrous form, containing no water when stored at about 0% relative humidity and containing not more than about 0.8% to 1.7% e.g. when stored at about 50% relative humidity.

Data set [3] can be described thus: Thermodynamical stability (crystal structure after storage). Conditions: stored 7 days at 80° C.

Counter-ions that a name gives are not always drawn.

On to `CN(C)c1cc(NC(=O)CNC(C)(C)C)c(O)c2c1C[C@H]1C[C@H]3[C@H](N(C)C)C(O)=C(C(N)=O)C(=O)[C@@]3(O)C(O)=C1C2=O` [A (xHCl), Tigecycline hydrochloride], for which, in data set [1] (hydrochloride), the 4-Epi-Tigecycline at ambient conditions came out at 0.84%, the Total impurities at ambient conditions came to 1.07%, the “4-Epi-Tigecycline 7 days at 80° C.” value is recorded as 0.89 and the “Total impurities 7 days at 80° C.” value was found to be 1.81. Moreover, the “Water solubility, Concentration” value in “physchem” (30 min) was 503 mg/mL. In the data set “physchem” (water, thermodynamic from solid, Water solubility, Concentration), the solubility – broadly, the concentration that dissolves in the medium under given conditions – at 30 min worked out at 503 mg/mL.

As for `CN(C)c1cc(NC(=O)CNC(C)(C)C)c(O)c2c1C[C@H]1C[C@H]3[C@H](N(C)C)C(O)=C(C(N)=O)C(=O)[C@@]3(O)C(O)=C1C2=O` [B (xHCl), Tigecycline hydrochloride], in data set [1] (hydrochloride), the 4-Epi-Tigecycline at ambient conditions was 0.93%, the Total impurities at ambient conditions was 1.91%, the “4-Epi-Tigecycline 7 days at 80° C.” value is recorded as 1.60 and the “Total impurities 7 days at 80° C.” value was found to be 4.19.

Turning to `CN(C)c1cc(NC(=O)CNC(C)(C)C)c(O)c2c1C[C@H]1C[C@H]3[C@H](N(C)C)C(O)=C(C(N)=O)C(=O)[C@@]3(O)C(O)=C1C2=O` [C (x2HCl), Tigecycline dihydrochloride], in data set [1], the 4-Epi-Tigecycline at ambient conditions was 0.73%, the Total impurities at ambient conditions was found to be 0.83%, the “4-Epi-Tigecycline 7 days at 80° C.” value is 2.40 and the “Total impurities 7 days at 80° C.” value was 2.60. Further, the Water content result in data set [2] is given as “no water”. Also, the “Change of crystal structure on storage” value in data set [3] is “did not change its crystal structure”. The “Water solubility compared with the other crystalline forms” value in the data set “physchem” is on record as “highest water solubility”.

For the molecule `CN(C)c1cc(NC(=O)CNC(C)(C)C)c(O)c2c1C[C@H]1C[C@H]3[C@H](N(C)C)C(O)=C(C(N)=O)C(=O)[C@@]3(O)C(O)=C1C2=O.Cl.Cl` [C + 20% amorphous (x2HCl), Tigecycline dihydrochloride], in data set [1], the 4-Epi-Tigecycline at ambient conditions came to 1.73%, the Total impurities at ambient conditions was found to be 1.81%, the “Stability in words (impurities after storage)” value (shortened to “Stability in words”) was “less stable than a pure polymorphic form C” and the “4-Epi-Tigecycline 7 days at 80° C.” value came out at 4.34. The “Total impurities 7 days at 80° C.” value in data set [1] is reported as 4.88.

For the molecule `CN(C)c1cc(NC(=O)CNC(C)(C)C)c(O)c2c1C[C@H]1C[C@H]3[C@H](N(C)C)C(O)=C(C(N)=O)C(=O)[C@@]3(O)C(O)=C1C2=O` [WO 2006/128150 I, Tigecycline], in data set [1], the 4-Epi-Tigecycline at ambient conditions worked out at 0.36%, the Total impurities at ambient conditions came to 0.75%, the “Stability in words” value was “tremendous increase in total impurities” and the “4-Epi-Tigecycline 7 days at 80° C.” value was found to be 2.15. In data set [1], the “Total impurities 7 days at 80° C.” value was 11.20.

On to `CN(C)c1cc(NC(=O)CNC(C)(C)C)c(O)c2c1C[C@H]1C[C@H]3[C@H](N(C)C)C(O)=C(C(N)=O)C(=O)[C@@]3(O)C(O)=C1C2=O` [WO 2006/128150 II, Tigecycline], for which, in data set [1], the 4-Epi-Tigecycline at ambient conditions was found to be 1.04%, the Total impurities at ambient conditions was 1.6%, the “Stability in words” value is on record as “tremendous increase in total impurities” and the “4-Epi-Tigecycline 7 days at 80° C.” value came out at 10.83. For the same molecule, the “Total impurities 7 days at 80° C.” value in data set [1] is 18.44.

For the molecule `CN(C)c1cc(NC(=O)CNC(C)(C)C)c(O)c2c1C[C@H]1C[C@H]3[C@H](N(C)C)C(=O)C(C(N)=O)=C(O)[C@@]3(O)C(=O)C1=C2O` [WO 2006/128150 III, Tigecycline], in data set [1], the 4-Epi-Tigecycline at ambient conditions was 0.16%, the Total impurities at ambient conditions worked out at 0.16%, the “4-Epi-Tigecycline 7 days at 80° C.” value was determined as 2.18 and the “Total impurities 7 days at 80° C.” value is 4.46.

In the case of `CN(C)c1cc(NC(=O)CNC(C)(C)C)c(O)c2c1C[C@H]1C[C@H]3[C@H](N(C)C)C(O)=C(C(N)=O)C(=O)[C@@]3(O)C(O)=C1C2=O` [WO 2006/128150 IV, Tigecycline], in data set [1], the 4-Epi-Tigecycline at ambient conditions was found to be 0.23%, the Total impurities at ambient conditions turned out to be 0.4%, the “4-Epi-Tigecycline 7 days at 80° C.” value is recorded as 0.38 and the “Total impurities 7 days at 80° C.” value is 0.87.

For the molecule `CN(C)c1cc(NC(=O)CNC(C)(C)C)c(O)c2c1C[C@H]1C[C@H]3[C@H](N(C)C)C(O)=C(C(N)=O)C(=O)[C@@]3(O)C(O)=C1C2=O` [WO 2006/128150 V, Tigecycline], in data set [1], the 4-Epi-Tigecycline at ambient conditions is under 0.05%, the Total impurities at ambient conditions is 0.22%, the “4-Epi-Tigecycline 7 days at 80° C.” value is 0.18 and the “Total impurities 7 days at 80° C.” value was found to be 0.37.

On to `CN(C)c1cc(NC(=O)CNC(C)(C)C)c(O)c2c1C[C@H]1C[C@H]3[C@H](N(C)C)C(O)=C(C(N)=O)C(=O)[C@@]3(O)C(O)=C1C2=O` [WO 2007/127292 I, Tigecycline], for which, in data set [1] (listed as WO 2007/127792 I), the 4-Epi-Tigecycline at ambient conditions came to 0.34%, the Total impurities at ambient conditions is 0.59%, the “4-Epi-Tigecycline 7 days at 80° C.” value came to 1.26 and the “Total impurities 7 days at 80° C.” value is recorded as 2.22.

As for `CN(C)c1cc(NC(=O)CNC(C)(C)C)c(O)c2c1C[C@H]1C[C@H]3[C@H](N(C)C)C(O)=C(C(N)=O)C(=O)[C@@]3(O)C(O)=C1C2=O` [WO 2007/127292 II, Tigecycline], in data set [1] (listed as WO 2007/127792 II), the 4-Epi-Tigecycline at ambient conditions was determined as 0.17%, the Total impurities at ambient conditions is 0.24%, the “4-Epi-Tigecycline 7 days at 80° C.” value is on record as 0.38 and the “Total impurities 7 days at 80° C.” value stood at 0.91.

As for `CN(C)c1cc(NC(=O)CNC(C)(C)C)c(O)c2c1C[C@H]1C[C@H]3[C@H](N(C)C)C(O)=C(C(N)=O)C(=O)[C@@]3(O)C(O)=C1C2=O` [WO 2008/066935 IX, Tigecycline], in data set [1], the 4-Epi-Tigecycline at ambient conditions was found to be 0.15%, the Total impurities at ambient conditions worked out at 0.43%, the “4-Epi-Tigecycline 7 days at 80° C.” value was found to be 0.70 and the “Total impurities 7 days at 80° C.” value was 2.13.

For the molecule `CN(C)c1cc(NC(=O)CNC(C)(C)C)c(O)c2c1C[C@H]1C[C@H]3[C@H](N(C)C)C(=O)C(C(N)=O)=C(O)[C@@]3(O)C(=O)C1=C2O` [WO 2008/066935 XII, Tigecycline], in data set [1], the 4-Epi-Tigecycline at ambient conditions turned out to be 0.15%, the Total impurities at ambient conditions turned out to be 0.4%, the “4-Epi-Tigecycline 7 days at 80° C.” value is on record as 0.70 and the “Total impurities 7 days at 80° C.” value is on record as 4.38.

For the molecule `CN(C)c1cc(NC(=O)CNC(C)(C)C)c(O)c2c1C[C@H]1C[C@H]3[C@H](N(C)C)C(O)=C(C(N)=O)C(=O)[C@@]3(O)C(O)=C1C2=O` [amorphous (x2HCl), Tigecycline dihydrochloride], in data set [1] (dihydrochloride), the 4-Epi-Tigecycline at ambient conditions amounted to 4.97%, the Total impurities at ambient conditions is 5.05%, the “4-Epi-Tigecycline 7 days at 80° C.” value worked out at 16.42 and the “Total impurities 7 days at 80° C.” value turned out to be 18.82.

The values are drawn from patent US8513224B2, “Crystalline form C of tigecycline dihydrochloride and methods for its preparation” (Sandoz AG, priority 2008, dated 2013).
